Measured values published in patent US20230089073A1 (Carmot Therapeutics, Inc., priority 2021, published 2023).

Columns and labels:
human GLP-1 receptor = molecular target: T1, human GLP-1 receptor (Homo sapiens, UniProt P43220); assay: GLP-1R cAMP Assay; type: cell-based; details: cAMP accumulation in CHO cells stably overexpressing the human GLP-1 receptor; 30 min treatment; HitHunter cAMP kit; read-out: EC50
T1 construct: expressed in transfected cells
Summary of the method: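 CHO cells stably overexpressing human GLP-1R, 10,000 cells/well, treated with compound in 20-point dose response in triplicate for 30 min. cAMP accumulation read by enzyme-complementation luminescence after lysis and overnight incubation; dose-response curves fitted.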

cynomolgus monkeys = assay: Intravenous Glucose Tolerance Test (IVGTT) in Cynomolgus Monkeys; type: in vivo, cynomolgus monkeys (Macaca fascicularis); details: test article intravenous bolus 1-6 minutes prior to IV glucose 0.5 g/kg, plasma insulin 0-60 minutes, FIG. 1
Protocol: Intravenous Glucose Tolerance Test (IVGTT) in Cynomolgus Monkeys
Aged ([…]) cynomolgus monkeys (Macaca fascicularis; N=4-5/test article) were fasted overnight and anesthetized with ketamine prior to the intravenous glucose tolerance test (IVGTT). The test articles were formulated at 6 mg/mL in vehicle (5% polyethylene glycol 400: 95% (12% (w/v) sulfobutylether-β-cyclodextrin in deionized water) (v/v)]) and administered by intravenous bolus into a peripheral vein 1-6 minutes prior to the IVGTT. The IVGTT was initiated by administration of an IV bolus of glucose (0.5 g/kg as a 50% glucose solution). Blood samples were collected from a peripheral vein 0, 1, 3, 5, 10, 20, 40 and 60 minutes upon completion of the IV bolus glucose injection. The blood samples were collected directly into potassium ethylene diamine tetra-acetic acid tubes and plasma separated by centrifugation at 2,500 g for 10 minutes within 30 minutes of collection. The plasma from all time points was analyzed for insulin concentrations ([…]) using a Cobas e411 Immunology analyzer. Insulin area-under-the-curve (AUC) was calculated using GraphPad Prism software (v 9).

T1 sequence (P43220 24-463): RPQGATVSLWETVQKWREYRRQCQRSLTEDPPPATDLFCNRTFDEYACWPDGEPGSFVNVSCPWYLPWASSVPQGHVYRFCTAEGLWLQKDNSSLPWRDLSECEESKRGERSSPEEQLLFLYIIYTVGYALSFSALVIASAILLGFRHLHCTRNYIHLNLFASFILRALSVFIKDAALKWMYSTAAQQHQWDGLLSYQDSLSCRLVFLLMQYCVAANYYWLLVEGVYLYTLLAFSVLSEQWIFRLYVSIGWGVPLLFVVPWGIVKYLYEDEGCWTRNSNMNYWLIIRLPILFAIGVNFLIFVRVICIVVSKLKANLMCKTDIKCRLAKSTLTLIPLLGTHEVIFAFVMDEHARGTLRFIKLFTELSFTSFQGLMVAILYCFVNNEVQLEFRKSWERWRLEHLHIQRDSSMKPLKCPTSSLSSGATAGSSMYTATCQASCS

Structure (SMILES) | EC50 (human GLP-1 receptor) | insulin AUC (insulin secretion) (cynomolgus monkeys)
CCn1cncc1Cn1c(CN2CCC(Oc3ccnc(COc4ccc(Cl)cc4C#N)c3)CC2)nc2ccc(C(=O)O)cc21 [Compound 171, 2-{[4-({2-[(4-chloro-2-cyanophenoxy)methyl]pyridin-4-yl}oxy)piperidin-1-yl]methyl}-1-[(1-ethyl-1H-imidazol-5-yl)methyl]-1H-1,3-benzodiazole-6-carboxylic acid] | < 0.05 µM | substantial increase
O=C(O)c1ccc2nc(CN3CCC(Oc4ccnc(COc5ccc(C(F)(F)F)cc5F)n4)CC3)n(C[C@@H]3CCO3)c2c1 [Compound 338] | < 0.05 µM | substantial increase
Cc1ccc(OCc2cccc(CC3CCN(Cc4nc5ccc(C(=O)O)cc5n4C[C@@H]4CCO4)CC3)n2)c(CO)c1 [Example 146, (S)-2-((4-((6-((2-(Hydroxymethyl)-4-methylphenoxy)methyl)pyridin-2-yl)methyl)piperidin-1-yl)methyl)-1-(oxetan-2-ylmethyl)-1H-benzo[d]imidazole-6-carboxylic acid] | < 0.05 µM | –
O=C(O)c1ccc2nc(CN3CCC(Oc4cccc(COc5ccc(Cl)cc5Cl)c4)CC3)n(Cc3ncco3)c2c1 [Compound 217, 2-[(4-{3-[(2,4-dichlorophenoxy)methyl]phenoxy}piperidin-1-yl)methyl]-1-[(1,3-oxazol-2-yl)methyl]-1H-1,3-benzodiazole-6-carboxylic acid] | < 0.05 µM | –
CCn1cncc1Cn1c(CN2CCN(C(=O)c3cccc(OCc4ccc(C#N)cc4F)c3)CC2)nc2ccc(C(=O)O)cc21 [Compound 67, 2-[(4-{3-[(4-cyano-2-fluorophenyl)methoxy]benzoyl}piperazin-1-yl)methyl]-1-[(1-ethyl-1H-imidazol-5-yl)methyl]-1H-1,3-benzodiazole-6-carboxylic acid] | > 0.5 µM | –
CC(Oc1ccc(C#N)cc1F)c1nccc(OC2CCN(Cc3nc4ccc(C(=O)O)cc4n3C[C@@H]3CCO3)CC2)n1 (mixture of isomers) [Example 480, 2-((4-((2-(1-(4-Cyano-2-fluorophenoxy)ethyl)pyrimidin-4-yl)oxy)piperidin-1-yl)methyl)-1-(((S)-oxetan-2-yl)methyl)-1H-benzo[d]imidazole-6-carboxylic acid] | 0.05 to 0.5 µM | –
CCn1cncc1Cn1c(CN2CCC(Oc3ccnc(COc4ccc(Cl)cc4Cl)c3)CC2)nc2ccc(C(=O)O)cc21 [Example 145, 2-((4-((2-((2,4-Dichlorophenoxy)methyl)pyridin-4-yl)oxy)piperidin-1-yl)methyl)-1-((1-ethyl-1H-imidazol-5-yl)methyl)-1H-benzo[d]imidazole-6-carboxylic acid] | < 0.05 µM | substantial increase
CCn1cncc1Cn1c(CN2CC[C@H](Oc3ccnc(COc4ccc(Cl)cc4Cl)c3)C[C@@H]2C)nc2ccc(C(=O)O)cc21 [Example 274, 2-(((2S,4S)-4-((2-((2,4-Dichlorophenoxy)methyl)pyridin-4-yl)oxy)-2-methylpiperidin-1-yl)methyl)-1-((1-ethyl-1H-imidazol-5-yl)methyl)-1H-benzo[d]imidazole-6-carboxylic acid] | < 0.05 µM | –
O=C(O)c1cc(F)c2nc(CN3CCC(Oc4ccnc(COc5cc(F)c(F)cc5F)n4)CC3)n(C[C@@H]3CCO3)c2c1 [Compound 494, 4-fluoro-1-{[(2S)-oxetan-2-yl]methyl}-2-{[4-({2-[(2,4,5-trifluorophenoxy)methyl]pyrimidin-4-yl}oxy)piperidin-1-yl]methyl}-1H-1,3-benzodiazole-6-carboxylic acid] | < 0.05 µM | –
CCn1cncc1Cn1c(CN2CCN(C(=O)c3cccc(COc4ccc(C)cc4Cl)c3)CC2)nc2ccc(C(=O)O)cc21 [Compound 65, 2-[(4-{3-[(2-chloro-4-methylphenoxy)methyl]benzoyl}piperazin-1-yl)methyl]-1-[(1-ethyl-1H-imidazol-5-yl)methyl]-1H-1,3-benzodiazole-6-carboxylic acid] | 0.05 to 0.5 µM | –

Second part, led by results:

EC50 (human GLP-1 receptor) | Structure (SMILES) | insulin AUC (insulin secretion) (cynomolgus monkeys)
< 0.05 µM | C[C@H]1C[C@@H](Oc2ccnc(COc3ccc(C#N)cc3F)n2)CCN1Cc1nc2ccc(C(=O)O)cc2n1C[C@@H]1CCO1 [Example 313, 2-(((2S,4S)-4-((2-((4-Cyano-2-fluorophenoxy)methyl)pyrimidin-4-yl)oxy)-2-methylpiperidin-1-yl)methyl)-1-(((S)-oxetan-2-yl)methyl)-1H-benzo[d]imidazole-6-carboxylic acid] | substantial increase
< 0.05 µM | O=C(O)c1ccc2nc(CN3CCC(Oc4ccnc(COc5ccc(F)cc5Cl)n4)CC3)n(C[C@@H]3CCO3)c2c1 [Compound 326] | substantial increase
< 0.05 µM | C[C@H]1C[C@@H](Oc2ccnc(COc3ccc(F)cc3C#N)n2)CCN1Cc1nc2ccc(C(=O)O)cc2n1C[C@@H]1CCO1 [Example 355, 2-(((2S,4S)-4-((2-((2-cyano-4-fluorophenoxy)methyl)pyrimidin-4-yl)oxy)-2-methylpiperidin-1-yl)methyl)-1-(((S)-oxetan-2-yl)methyl)-1H-benzo[d]imidazole-6-carboxylic acid] | substantial increase
< 0.05 µM | O=C(O)c1cc(F)c2nc(CN3CCC(Oc4ccnc(COc5ccc(Cl)cc5F)c4)CC3)n(C[C@@H]3CCO3)c2c1 [Compound 335] | substantial increase
< 0.05 µM | O=C(O)c1ccc2nc(CN3CCC(Cc4cccc(COc5ccc(C6CC6)cc5Cl)n4)CC3)n(C[C@@H]3CCO3)c2c1 [Example 152, (S)-2-((4-((6-((2-Chloro-4-cyclopropylphenoxy)methyl)pyridin-2-yl)methyl)piperidin-1-yl)methyl)-1-(oxetan-2-ylmethyl)-1H-benzo[d]imidazole-6-carboxylic acid] | –
< 0.05 µM | N#Cc1cc(Cl)ccc1OCc1cccc(OC2CCN(Cc3nc4ccc(C(=O)O)cc4n3Cc3ncco3)CC2)c1 [Compound 232, 2-[(4-{3-[(4-chloro-2-cyanophenoxy)methyl]phenoxy}piperidin-1-yl)methyl]-1-[(1,3-oxazol-2-yl)methyl]-1H-1,3-benzodiazole-6-carboxylic acid] | –
< 0.05 µM | CCn1cncc1Cn1c(CN2CCC(Oc3cnc(COc4ccc(Cl)cc4Cl)o3)CC2)nc2ccc(C(=O)O)cc21 [Compound 214, 2-{[4-({2-[(2,4-dichlorophenoxy)methyl]-1,3-oxazol-5-yl}oxy)piperidin-1-yl]methyl}-1-[(1-ethyl-1H-imidazol-5-yl)methyl]-1H-1,3-benzodiazole-6-carboxylic acid] | –
< 0.05 µM | O=C(O)c1ccc2nc(CN3CCC(Cc4cccc(COc5ccc(Cl)cc5Cl)c4)CC3)n(C[C@@H]3CCO3)c2c1 [Compound 103, 2-{[4-({3-[(2,4-dichlorophenoxy)methyl]phenyl}methyl)piperidin-1-yl]methyl}-1-{[(2S)-oxetan-2-yl]methyl}-1H-1,3-benzodiazole-6-carboxylic acid] | –
< 0.05 µM | O=C(O)c1ccc2nc(CN3CCC(Oc4ccnc(COc5ccc(F)cc5C(F)(F)F)n4)CC3)n(C[C@@H]3CCO3)c2c1 [Compound 342] | –
< 0.05 µM | C[C@H]1C[C@@H](Oc2cccc(COc3ccc(Cl)cc3F)n2)CCN1Cc1nc2ccc(C(=O)O)cc2n1C[C@@H]1CCO1 [Compound 291, 2-{[(2S,4S)-4-({6-[(4-chloro-2-fluorophenoxy)methyl]pyridin-2-yl}oxy)-2-methylpiperidin-1-yl]methyl}-1-{[(2S)-oxetan-2-yl]methyl}-1H-1,3-benzodiazole-6-carboxylic acid] | –
